Where “and” joins values, the source holds several entries; their conditions need not be identical. Equal entries are not always repeated. Entries after “also recorded” stand apart in the source; their conditions may differ. Where two headings read alike, the source gives them in different places.
Assays:
human TDO2 = biological target: T1, human TDO2 (Homo sapiens, UniProt P48775); experiment: TDO2 cellular activity assay (SW48 cells, NFK + KYN in supernatant by LCMS); assay type: cell-based; details: 24 h, 200 µM Trp
T1 construct: SW48 cells, which express a high level of endogenous TDO2; endogenous in cells; host or cells: SW48 cells (ATCC CCL-231)
Procedure: The inhibitor compound 1 (Cpd-1) (IUPAC name ethyl 9-(3-(2-propylphenyl)-1-(1-phenylethyl)ureido)-2-methoxy-4-oxo-6,7,8,9-tetrahydro-4H-pyrido[1,2-a]pyrimidine-3-carboxylate) was identified as a hit in a high throughput screening campaign of a diverse set of 244,625 compounds in a human TDO2 cellular assay utilizing SW48 cells, which express a high level of endogenous TDO2. TDO2 activity was assessed by measuring the accumulation of the TDO2 product NFK and downstream product KYN in the supernatant. The potent inhibitor compound 2 (Cpd-2) (IUPAC name ethyl 9-(3-(2-isopropylphenyl)-1-((S)-1-phenylethyl)ureido)-2-methoxy-4-oxo-6,7,8,9-tetrahydro-4H-pyrido[1,2-a]pyrimidine-3-carboxylate) was identified during initial structure activity relationship studies of Cpd-1 analogs.
SW48 cells (source: American Type Culture Collection (ATCC), CCL-231) were used to measure the TDO2 inhibitory activity of compounds and were routinely maintained in DMEM high glucose/GlutaMAX^TM/pyruvate (Gibco, 10569010) 90% (v/v), FCS (Gibco, 10500, heat inactivated)10% (v/v), Penicillin/streptomycin (Gibco, 15140) 1% (v/v). […]
The 384 deep well plate containing 3 µl supernatant and 25 µl H2O per well were further processed for LCMS. […] NFK and kynurenine were quantified by LCMS, normalized to the internal standard Trp-(indole-d5) and the sum was calculated. […]

apo-TDO2 = biological target: T2, apo-TDO2 (Homo sapiens, UniProt P48775); experiment: Differential scanning fluorimetry (thermal shift) of apo-TDO2; assay type: binding; details: for Δ Tm Boltzmann / Δ Tm Derivative: 25 µM; for Δ Tm Boltzmann / Δ Tm Derivative / Tm Boltzmann / Tm Derivative: in °C
T2 construct: a longer construct (His6-aa19-406, with aa406 corresponding to the wild type C-terminal residue), which was used for DSF and other experiments; made in house; host or cells: E. coli RP523 (hemB mutant, unable to synthesize heme)
Procedure: […] S5 online).
Protein thermal stability and small molecule ligand binding of TDO2 in vitro was studied using differential scanning fluorimetry (DSF, also known as thermal shift assay)[34]. Assay ingredients and ligands were combined to obtain a mixture composed of 10 µM TDO2 and 10x SYPRO Orange, in assay buffer (50 mM HEPES-NaOH pH 8.0, 200 mM NaCl, 2 mM TCEP, 10% glycerol) and 2% final DMSO concentration. Small molecule chemical ligands were taken from DMSO stock solution (100 mM, 10 mM) and diluted in DMSO transferred to wells of PCR Plates (Micro Amp Fast 96-well Reaction Plates, Applied Biosystems) to ensure matching final DMSO concentrations.
DSF was carried out with a StepOnePlus™ real time PCR system. Thermal denaturation of TDO2 was monitored with a ramp rate of 1 K/min. Protein melting curves were evaluated using the Thermal Shift Software v 1.3. (Thermo Fisher Scientific) to derive differences in midpoint melting-temperatures (derivative model). The thermal shift (DTm) is documented as the difference between the reference midpoint melting temperature of proteins (containing 500 µM AMT) in the presence of the ligand vehicle (DMSO) and in the presence of ligand.
Supplementary Table S2. Differential scanning fluorimetry data corresponding to supplementary figure S4. The experiments were carried out in quadruplicate, or in triplicate where single outlier values (highlighted in bold italics) were excluded from calculation of the melting curves. AMT was added at a concentration of 500 µM; […] and […] were added at a concentration of 25 µM.

holo-TDO2 = biological target: T3, holo-TDO2 (Homo sapiens, UniProt P48775); experiment: Heme competition by holo-TDO2 UV-VIS absorbance (Soret band); assay type: binding; details: 5 µM holo-TDO2, 20 µM inhibitor, 37 °C, up to 6 h
T3 construct: a construct encoding amino acids 19–406 of human TDO2 with an N-terminal six histidine tag; His6 (N); PreScission protease cleavage site (linker) (N); made in house; host or cells: E. coli BL21(DE3)
Procedure: To explore whether the identified apo-binders could compete with heme-binding to TDO2, a UV-visible absorption spectrum of holo-TDO2 was measured in the absence or presence of compounds. […] A shifted Soret peak can indicate a heme protein-ligand interaction, and a reduced intensity indicates loss of protein bound heme (although free heme also absorbs with a peak at approximately 400 nm, it is very poorly soluble).
Fig. 2 The UV-VIS absorption spectrum of holo-TDO2 in the presence of Cpd-1 (A) or Cpd-2 (B) or the vehicle control. […] The increase of absorbance at 280 nm of holo-TDO2 in the presence of Cpd-1 or Cpd-2 compared to the vehicle control is likely due to compound absorbance at this wavelength.
A UV − visible spectra study was performed to evaluate the binding of the compounds. The holo-TDO2 absorbance spectra were measured using a BioTek Synergy multimode reader (Agilent) for wavelengths from 250 to 600 nm in 1 nm increments. 5 µM holo-TDO2 was incubated at 37 °C with 20 µM compounds or DMSO in phosphate buffer supplemented with 0.01% Tween-20 in a 96 well UV compatible plate (Corning #3679) and absorbance was measured before (t = 0 h) and after 2–6 h of incubation.

[1] = 25 µM compound with 500 µM AMT, compared to 59.2 °C in the absence of inhibitor, read-out: increase of the melting temperature of apo-TDO2
[2] = apo-TDO2 + 25 µM compound, no AMT, shift vs apo, single replicates
[3] = apo-TDO2 + 25 µM compound, no AMT, shift vs apo, single replicates, read-out: Δ Tm Boltzmann
[4] = apo-TDO2 + 25 µM compound, no AMT, shift vs apo, single replicates, read-out: Δ Tm Derivative
[5] = apo-TDO2 + 25 µM compound, no AMT, single replicates

T2 sequence (P48775 19-406): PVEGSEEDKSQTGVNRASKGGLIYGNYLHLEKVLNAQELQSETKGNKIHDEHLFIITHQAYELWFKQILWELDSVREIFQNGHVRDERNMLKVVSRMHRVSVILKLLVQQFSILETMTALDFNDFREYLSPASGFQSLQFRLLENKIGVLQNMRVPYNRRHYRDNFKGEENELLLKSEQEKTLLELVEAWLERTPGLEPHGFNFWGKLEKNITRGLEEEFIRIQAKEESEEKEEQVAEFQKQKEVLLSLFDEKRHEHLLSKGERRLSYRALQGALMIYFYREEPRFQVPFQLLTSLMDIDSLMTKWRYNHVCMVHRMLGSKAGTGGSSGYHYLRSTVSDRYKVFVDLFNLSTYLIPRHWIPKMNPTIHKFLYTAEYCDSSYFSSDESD
T3 sequence (P48775 19-406): as above
T1 sequence (P48775 whole entry): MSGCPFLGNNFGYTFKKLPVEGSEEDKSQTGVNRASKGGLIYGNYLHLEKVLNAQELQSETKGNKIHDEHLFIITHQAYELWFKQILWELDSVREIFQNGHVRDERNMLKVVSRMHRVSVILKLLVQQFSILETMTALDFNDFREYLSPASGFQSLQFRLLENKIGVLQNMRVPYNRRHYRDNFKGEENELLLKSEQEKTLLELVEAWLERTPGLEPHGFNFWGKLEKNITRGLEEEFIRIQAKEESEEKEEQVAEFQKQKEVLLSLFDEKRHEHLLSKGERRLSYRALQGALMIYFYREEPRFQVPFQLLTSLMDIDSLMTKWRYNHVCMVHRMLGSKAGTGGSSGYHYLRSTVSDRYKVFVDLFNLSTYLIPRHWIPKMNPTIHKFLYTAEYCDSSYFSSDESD

| IC50 (human TDO2) [nM] | ΔTm at 25 µM (apo-TDO2; [1]) [°C] | Δ Tm Boltzmann (apo-TDO2; [2]) | Δ Tm Derivative (apo-TDO2; [2]) | ΔTm at 25 µM (apo-TDO2; [3]) [°C] | ΔTm at 25 µM (apo-TDO2; [4]) [°C] | Tm Boltzmann (apo-TDO2; [5]) | Tm Derivative (apo-TDO2; [5]) | SMILES | Soret band (405 nm) intensity of holo-TDO2 absorption spectrum (holo-TDO2) |
| --- | --- | --- | --- | --- | --- | --- | --- | --- | --- |
| 14.8 | 14.5 | 21.65 and 21.58 and 21.17 | 21.51 and 21.53 and 21.2 | 21.4 | 21.5 | 70.45 | 70.37 and 70.39 and 70.41 and 70.08 | CCOC(=O)c1c(OC)nc2n(c1=O)CCCC2N(C(=O)Nc1ccccc1C(C)C)[C@@H](C)c1ccccc1 (mixture of isomers) [Cpd-2, ethyl 9-(3-(2-isopropylphenyl)-1-((S)-1-phenylethyl)ureido)-2-methoxy-4-oxo-6,7,8,9-tetrahydro-4H-pyrido[1,2-a]pyrimidine-3-carboxylate] | clear time-dependent reduction in the Soret band intensity; also recorded: reduction of the absorbance peak at 405 nm |
| 327 | 11.2 | 11.41 and 11.37 and 11.43 | 7.28 and 6.95 and 6.97 | 10.3 | 6.57 | 59.1 and 60.21 and 60.17 and 60.23 | 55.45 and 56.16 and 55.84 and 55.85 | CCCc1ccccc1NC(=O)N(C(C)c1ccccc1)C1CCCn2c1nc(OC)c(C(=O)OCC)c2=O (stereo not drawn) [Cpd-1, ethyl 9-(3-(2-propylphenyl)-1-(1-phenylethyl)ureido)-2-methoxy-4-oxo-6,7,8,9-tetrahydro-4H-pyrido[1,2-a]pyrimidine-3-carboxylate] | clear time-dependent reduction in the Soret band intensity; also recorded: reduction of the absorbance peak at 405 nm |

From publication PMC11561238, “Discovery and binding mode of small molecule inhibitors of the apo form of human TDO2” (Scientific Reports, 2024)
